What was measured:
Experiment in all cases: relative viability (nuclei count vs DMSO), 5 days (fraction); higher = more cells survive
NCI-H2347 = test system: NCI-H2347
Outline: (§1)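 The day after seeding in 1536-well plates, lung cancer cell lines were treated by pin tool with a single drug, or with a fixed anchor-drug dose together with five library-drug doses (not always all listed) in √10 steps. After 5 days, a combined fix-and-stain solution (final 0.05% Triton X-100, 1% formaldehyde, 1 ug/ml Hoechst) was added. Nuclei counted on 4× images gave relative viability as treated counts over vehicle counts, reported as the median of duplicate plates.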

HARA = test system: HARA
Outline: as §1

NCI-H1651 = test system: NCI-H1651
Outline: as §1

NCI-H520 = test system: NCI-H520
Outline: as §1

NCI-H2405 = test system: NCI-H2405
Outline: as §1

NCI-H647 = test system: NCI-H647
Outline: as §1

NCI-H522 = test system: NCI-H522
Outline: as §1

LK-2 = test system: LK-2
Outline: as §1

NCI-H1650 = test system: NCI-H1650
Outline: as §1

COR-L23 = test system: COR-L23
Outline: as §1

NCI-H1793 = test system: NCI-H1793
Outline: as §1

NCI-H838 = test system: NCI-H838
Outline: as §1

A-427 = test system: A-427
Outline: as §1

NCI-H23 = test system: NCI-H23
Outline: as §1

LCLC-103H = test system: LCLC-103H
Outline: as §1

LXF-289 = test system: LXF-289
Outline: as §1

201T = test system: 201T
Outline: as §1

PC-3 [JPC-3] = test system: PC-3 [JPC-3]
Outline: as §1

LCLC-97TM1 = test system: LCLC-97TM1
Outline: as §1

RERF-LC-KJ = test system: RERF-LC-KJ
Outline: as §1

LOU-NH91 = test system: LOU-NH91
Outline: as §1

UMC-11 = test system: UMC-11
Outline: as §1

**Q.** What does the source list for Cc1cn(-c2cc(NC(=O)c3ccc(C)c(Nc4nccc(-c5cccnc5)n4)c3)cc(C(F)(F)F)c2)cn1 [Nilotinib] + CCNC(=O)c1noc(-c2cc(C(C)C)c(O)cc2O)c1-c1ccc(CN2CCOCC2)cc1 [Luminespib] (partner 0.01 µM)?
**A.** relative viability (NCI-H2347; first compound 0.001 µM): 0.344; relative viability (NCI-H2347; first compound 0.003162 µM): 0.263; relative viability (NCI-H2347; first compound 0.01 µM): 0.712; relative viability (NCI-H2347; first compound 0.03162 µM): 0.589; relative viability (NCI-H2347; first compound 0.1 µM): 0.598; relative viability (HARA; first compound 0.001 µM): 0.569; relative viability (HARA; first compound 0.003162 µM): 1.24; relative viability (HARA; first compound 0.01 µM): 1.14; relative viability (HARA; first compound 0.03162 µM): 0.842; relative viability (HARA; first compound 0.1 µM): 0.482; relative viability (NCI-H1651; first compound 0.001 µM): 0.78; relative viability (NCI-H1651; first compound 0.003162 µM): 0.912; relative viability (NCI-H1651; first compound 0.01 µM): 0.902; relative viability (NCI-H1651; first compound 0.03162 µM): 0.711; relative viability (NCI-H1651; first compound 0.1 µM): 0.753; relative viability (NCI-H520; first compound 0.001 µM): 0.308; relative viability (NCI-H520; first compound 0.01 µM): 0.244; relative viability (NCI-H520; first compound 0.03162 µM): 0.223; relative viability (NCI-H520; first compound 0.1 µM): 0.216; relative viability (NCI-H2405; first compound 0.001 µM): 0.76; relative viability (NCI-H2405; first compound 0.003162 µM): 0.575; relative viability (NCI-H2405; first compound 0.01 µM): 0.756; relative viability (NCI-H2405; first compound 0.03162 µM): 0.448; relative viability (NCI-H2405; first compound 0.1 µM): 0.658; relative viability (NCI-H647; first compound 0.001 µM): 0.228; relative viability (NCI-H647; first compound 0.003162 µM): 0.194; relative viability (NCI-H647; first compound 0.01 µM): 0.194; relative viability (NCI-H647; first compound 0.03162 µM): 0.129; relative viability (NCI-H647; first compound 0.1 µM): 0.161; relative viability (NCI-H522; first compound 0.001 µM): 1.11; relative viability (NCI-H522; first compound 0.003162 µM): 1.13; relative viability (NCI-H522; first compound 0.01 µM): 1.35; relative viability (NCI-H522; first compound 0.03162 µM): 1.07; relative viability (NCI-H522; first compound 0.1 µM): 1.15; relative viability (LK-2; first compound 0.003162 µM): 0.139; relative viability (LK-2; first compound 0.01 µM): 0.207; relative viability (LK-2; first compound 0.03162 µM): 0.196; relative viability (LK-2; first compound 0.1 µM): 0.182; relative viability (NCI-H1650; first compound 0.001 µM): 0.208; relative viability (NCI-H1650; first compound 0.003162 µM): 0.203; relative viability (NCI-H1650; first compound 0.01 µM): 0.197; relative viability (NCI-H1650; first compound 0.03162 µM): 0.221; relative viability (NCI-H1650; first compound 0.1 µM): 0.192; relative viability (COR-L23; first compound 0.001 µM): 0.478; relative viability (COR-L23; first compound 0.003162 µM): 0.557; relative viability (COR-L23; first compound 0.01 µM): 0.883; relative viability (COR-L23; first compound 0.03162 µM): 0.507; relative viability (COR-L23; first compound 0.1 µM): 0.535; relative viability (NCI-H1793; first compound 0.001 µM): 0.158; relative viability (NCI-H1793; first compound 0.003162 µM): 0.162; relative viability (NCI-H1793; first compound 0.01 µM): 0.195; relative viability (NCI-H1793; first compound 0.03162 µM): 0.168; relative viability (NCI-H1793; first compound 0.1 µM): 0.166; relative viability (NCI-H838; first compound 0.001 µM): 0.24; relative viability (NCI-H838; first compound 0.003162 µM): 0.276; relative viability (NCI-H838; first compound 0.01 µM): 0.308; relative viability (NCI-H838; first compound 0.03162 µM): 0.273; relative viability (NCI-H838; first compound 0.1 µM): 0.208; relative viability (A-427; first compound 0.001 µM): 0.98; relative viability (A-427; first compound 0.003162 µM): 0.948; relative viability (A-427; first compound 0.03162 µM): 0.724; relative viability (A-427; first compound 0.1 µM): 0.336; relative viability (NCI-H23; first compound 0.001 µM): 0.204; relative viability (NCI-H23; first compound 0.01 µM): 0.205; relative viability (NCI-H23; first compound 0.03162 µM): 0.19; relative viability (NCI-H23; first compound 0.1 µM): 0.195; relative viability (LCLC-103H; first compound 0.001 µM): 0.971; relative viability (LCLC-103H; first compound 0.003162 µM): 1.3; relative viability (LCLC-103H; first compound 0.01 µM): 1.33; relative viability (LCLC-103H; first compound 0.03162 µM): 0.927; relative viability (LCLC-103H; first compound 0.1 µM): 0.919; relative viability (LXF-289; first compound 0.001 µM): 0.655; relative viability (LXF-289; first compound 0.003162 µM): 1.02; relative viability (LXF-289; first compound 0.01 µM): 0.988; relative viability (LXF-289; first compound 0.03162 µM): 0.573; relative viability (LXF-289; first compound 0.1 µM): 0.649; relative viability (201T; first compound 0.003162 µM): 1.13; relative viability (201T; first compound 0.01 µM): 1.16; relative viability (201T; first compound 0.03162 µM): 1.11; relative viability (201T; first compound 0.1 µM): 1.03; relative viability (PC-3 [JPC-3]; first compound 0.001 µM): 0.548; relative viability (PC-3 [JPC-3]; first compound 0.003162 µM): 0.627; relative viability (PC-3 [JPC-3]; first compound 0.01 µM): 0.869; relative viability (PC-3 [JPC-3]; first compound 0.03162 µM): 0.659; relative viability (PC-3 [JPC-3]; first compound 0.1 µM): 0.526; relative viability (LCLC-97TM1; first compound 0.001 µM): 0.795; relative viability (LCLC-97TM1; first compound 0.003162 µM): 0.868; relative viability (LCLC-97TM1; first compound 0.01 µM): 0.741; relative viability (LCLC-97TM1; first compound 0.03162 µM): 0.607; relative viability (LCLC-97TM1; first compound 0.1 µM): 0.641; relative viability (RERF-LC-KJ; first compound 0.001 µM): 1.3; relative viability (RERF-LC-KJ; first compound 0.003162 µM): 1.47; relative viability (RERF-LC-KJ; first compound 0.01 µM): 1.34; relative viability (RERF-LC-KJ; first compound 0.03162 µM): 0.946; relative viability (RERF-LC-KJ; first compound 0.1 µM): 1.22; relative viability (LOU-NH91; first compound 0.001 µM): 0.318; relative viability (LOU-NH91; first compound 0.003162 µM): 0.308; relative viability (LOU-NH91; first compound 0.01 µM): 0.346; relative viability (LOU-NH91; first compound 0.03162 µM): 0.276; relative viability (LOU-NH91; first compound 0.1 µM): 0.321; relative viability (UMC-11; first compound 0.001 µM): 0.978; relative viability (UMC-11; first compound 0.003162 µM): 1.22; relative viability (UMC-11; first compound 0.01 µM): 1.26; relative viability (UMC-11; first compound 0.1 µM): 1.39

— the supplement of paper PMC10307832
